Measurements taken from PMC5896380, “Selective imaging of cathepsin L in breast cancer by fluorescent activity-based probes” (Chemical Science, 2018).

Legend:
[1] = test system: cathepsins L and B in MDA-MB-231 cells; test: Cathepsin labeling in MDA-MB-231 cells by SDS-PAGE and western blotting; type: cell-based, human
Description: Low passage MDA-MB-231 cells were seeded on 12-well plates (200 000 cells per well per 1 mL of medium) and cultured in Dulbecco’s Modification of Eagle’s Medium (DMEM) supplemented with 10% fetal bovine serum, 2 mM of L-glutamine, 100 units per mL penicillin and 100 μg mL^–1 streptomycin. […] To control for non-specific binding, the cells were preincubated with E64d (25 μM) for 2 hours prior to probe addition. At various time points, the medium was aspirated and the cells were gently washed twice with 1 mL of Dulbecco’s Phosphate-Buffered Saline (DPBS) and then trypsinized, harvested and centrifuged for 10 min (500 × g). The supernatants were removed by aspiration and the pellets washed with 1 mL of DPBS and centrifuged (5 min, 500 × g). The supernatants were again removed and the pellets solubilized in 100 μL 1× SDS/DTT and then boiled for 5 min. Each sample was then cooled to room temperature and sonicated (Branson Sonifier 250, duty cycle: 50, output control: 5, cycles: 5) and then 30 μL was loaded on 4–12% Bis-Tris Plus gels and run for 30 min at 200 V with a SDS-PAGE Standards/Broad Range ladder. Proteins were transferred to a 0.2 μm nitrocellulose membrane for 1 hour at 10 V and then Ponceau staining was used to verify equal loading. Membranes were blocked with 2.5% BSA in Tris-buffered saline/0.1% v/v Tween 20 (TBS-T) for 1 hour at room temperature. Cathepsins L and B were detected by primary goat anti-hCathepsin L (R&D, AF952, 0.2 mg mL^–1, 1 : 2000) and goat anti-hCathepsin B (R&D, AF953, 0.2 mg mL^–1, 1 : 1000) antibodies, respectively, followed by incubation with a secondary antibody (IRDye® 800CW, LI-COR, donkey anti-goat, 1 : 10 000). The membranes were incubated with primary antibodies for 2 hours, and with (fluorescent) secondary antibodies for 30 min (both in TBS-T at room temperature). The fluorescence was read at 700 nm (Cyanine5; excitation 685 nm) and 800 nm (secondary antibody; excitation 785 nm) using an Odyssey fluorescence imaging system (LI-COR). The images were analyzed using Image Studio software.

[2] = target: T1, cathepsin L (Homo sapiens, UniProt P07711); test: kobs/I of activity-based probes, cathepsin L; type: biochemical; details: Fig. 6A; pseudo-first order, probe at least 5-fold excess over cathepsin, 100 μM ACC substrate; pH 5.5, 37 °C; triplicate, SD below 20%
T1 construct: made in house
Description: (§1) All kinetic experiments were performed using fMax (Molecular Devices) and CLARIOStar (BMG LABTECH) spectrofluorimeters operating in kinetic mode using 96-well plates. ACC-labeled substrates were screened using 355 nm and 460 nm wavelengths (excitation and emission, respectively). […] The buffer was prepared at room temperature and the enzyme kinetic studies were performed at 37 °C.
(§2) For the kinetic studies, five recombinant human cathepsins (B, L, V, K and S) were expressed and purified and active site titrated using an E64 inhibitor. The kobs/I parameter was measured under pseudo-first order kinetic conditions, as described.[40] The cathepsin of interest was mixed with various concentrations of probe (at least 5-fold excess over cathepsin) and 100 μM ACC-fluorescence substrate. The experiments were repeated at least three times, and the results are presented as an average. The SDs were below 20%.

[3] = target: T2, cathepsin V (Homo sapiens, UniProt O60911); test: kobs/I of activity-based probes, cathepsin V; type: biochemical; details: Fig. 6A; pseudo-first order, probe at least 5-fold excess over cathepsin, 100 μM ACC substrate; pH 5.5, 37 °C; triplicate, SD below 20%
T2 construct: made in house
Description: as §1, §2

[4] = target: T3, cathepsin B (Homo sapiens, UniProt P07858); test: kobs/I of activity-based probes, cathepsin B; type: biochemical; details: Fig. 6A; pseudo-first order, probe at least 5-fold excess over cathepsin, 100 μM ACC substrate; pH 5.5, 37 °C; triplicate, SD below 20%
T3 construct: made in house
Description: as §1, §2

[5] = target: T4, cathepsin S (Homo sapiens, UniProt P25774); test: kobs/I of activity-based probes, cathepsin S; type: biochemical; details: Fig. 6A; pseudo-first order, probe at least 5-fold excess over cathepsin, 100 μM ACC substrate; pH 5.5, 37 °C; triplicate, SD below 20%
T4 construct: made in house
Description: as §1, §2

[6] = target: T5, cathepsin K (Homo sapiens, UniProt P43235); test: kobs/I of activity-based probes, cathepsin K; type: biochemical; details: Fig. 6A; pseudo-first order, probe at least 5-fold excess over cathepsin, 100 μM ACC substrate; pH 5.5, 37 °C; triplicate, SD below 20%
T5 construct: made in house
T5 sequence (P43235 115-329): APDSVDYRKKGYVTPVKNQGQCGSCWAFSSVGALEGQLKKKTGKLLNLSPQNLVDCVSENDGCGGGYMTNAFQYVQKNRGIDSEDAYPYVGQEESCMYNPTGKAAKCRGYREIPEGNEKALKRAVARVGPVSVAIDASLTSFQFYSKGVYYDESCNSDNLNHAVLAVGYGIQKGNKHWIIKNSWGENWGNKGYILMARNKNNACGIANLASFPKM
Description: as §1, §2

[7] = test system: cathepsins L and B in HEK293T cells; test: Cathepsin labeling by Cy5 probes in HEK293T cells, immunoblotting; type: cell-based, human; details: 1 μM probe, 0–18 hours
Description: Figure S3 Cathepsins labeling by two Cy5-tagged probes in HEK293T cells. Panel A. Cells (100,000/well/mL) were incubated with MP-cL3 (1µM) probe for 0-18 hours. Next, cells were harvested and subjected for Western blotting. MP-cL3 probe is very selective toward cathepsin L even after 18 hours of incubation (only residual cathepsin B activity is detected).
MDA-MB-231, thus mostly heavy chain of cathepsin L is labeled. Panel B and Panel C. Cells (100,000/well/mL) were incubated with pan-specific MP-pc1 (1µ M) probe for 0-18 hours. Next, cells were harvested and subjected […]
(1 picture or pasted object on this page, not shown here)

[8] = test system: cathepsins L, V, B, S and K; test: Labeling of recombinant cathepsins by Cy5 probes, SDS-PAGE; type: biochemical, human; details: cathepsins 10 nM or 100 nM, probe/enzyme ratio 0.2, 1, 5 and 25, 30 min, Cy5 scan
Description: In experiment A, the probe concentrations were 2 nM, 10 nM, 50 nM and 250 nM, while in experiment B the probe concentrations were 20 nM, 100 nM, 500 nM and 2.5 μM. The reaction volume for all the samples was 200 μL. After 30 min, 100 μL of 3× SDS/DTT was added to the reaction mixtures, the samples were boiled for 5 min, and then 20 μL of the sample was run on 4–12% Bis-Tris Plus 15-well gels for 30 min at 200 V with 2 μL of PageRuler™ Prestained Protein Ladder. The gels were then directly scanned at 700 nm (red channel for Cy5 detection; excitation 685 nm) using an Odyssey fluorescence imaging system (LI-COR) and the images were analyzed using Image Studio software.

[9] = test system: HEK293T cathepsin L-transfected cells; details: probes 0–10 μM incubated with cells up to 24 hours; streptavidin–HRP blot
Description: To evaluate probe uptake, 250 000 HEK293T cells transfected with pcDNA3:ppCatL were seeded into 6-well plates and incubated with various concentrations of bMP-cL1 and bMP-cL2 (0–10 μM) for up to 24 hours. In control experiments the cells were preincubated with 25 μM E-64d, a pan-cathepsin inhibitor, for 2 hours prior to probe addition. After incubation samples were collected and immunoblotted. Biotinylated proteins were detected as described above.

[10] = test system: HEK293T cells overexpressing cathepsin L; details: probes 5 μM, 18 hours; streptavidin magnetic beads; immunoblotting
Description: To evaluate MP-cL1 and MP-cL2 selectivity, 250 000 HEK293T cells overexpressing cathepsin L were plated and treated with probes and inhibitors as described above. Streptavidin-bound magnetic beads were prepared in separate tubes according to the manufacturer’s guidelines (Pierce™ Streptavidin Magnetic Beads, Thermo Scientific). Briefly, 50 μL beads were washed with sample lysis buffer and then the lysates were added. Tubes were incubated at room temperature on a rocking platform for 2 hours. The beads were then extensively washed with 50 mM Tris-buffered saline containing 0.1% Tween-20 and collected between each washing step. The beads were then re-suspended in 1× SDS loading buffer at a final volume of 100 μL, and the samples were placed at 95 °C and prepared for immunoblotting as described above to detect biotinylated proteins in the lysates, as well as in the unbound and eluted fractions. To confirm cathepsin L/B selectivity, we seeded HEK293T cells as described above. The probes were added at a 5 μM final concentration and incubated for 18 hours before the cells were harvested and lysed to isolate biotinylated proteins using streptavidin magnetic beads, as described above. The lysates plus the unbound and eluting fractions were then evaluated to detect cathepsin B (in-house mouse polyclonal Ab;[51] dilution 1 : 1000) and cathepsin L (Abcam ab62710).

T1 sequence (P07711 114-333): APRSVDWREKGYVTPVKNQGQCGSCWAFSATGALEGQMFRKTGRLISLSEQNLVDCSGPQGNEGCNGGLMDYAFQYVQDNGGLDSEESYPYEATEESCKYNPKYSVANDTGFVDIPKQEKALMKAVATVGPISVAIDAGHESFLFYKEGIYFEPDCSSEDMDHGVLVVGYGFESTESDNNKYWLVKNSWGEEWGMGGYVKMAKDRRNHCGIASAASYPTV
T2 sequence (O60911 114-334): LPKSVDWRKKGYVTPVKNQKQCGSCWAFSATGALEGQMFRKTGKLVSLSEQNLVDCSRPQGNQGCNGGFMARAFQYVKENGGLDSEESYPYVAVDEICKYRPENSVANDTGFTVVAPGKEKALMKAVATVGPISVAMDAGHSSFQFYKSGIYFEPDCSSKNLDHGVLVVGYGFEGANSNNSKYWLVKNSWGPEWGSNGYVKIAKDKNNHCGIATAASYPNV
T4 sequence (P25774 115-331): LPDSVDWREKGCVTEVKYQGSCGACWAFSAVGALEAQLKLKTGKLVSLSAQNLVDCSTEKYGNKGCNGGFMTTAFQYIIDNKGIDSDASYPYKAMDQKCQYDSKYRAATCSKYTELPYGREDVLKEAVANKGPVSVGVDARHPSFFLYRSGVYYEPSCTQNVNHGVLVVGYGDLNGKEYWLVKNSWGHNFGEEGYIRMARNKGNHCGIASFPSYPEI

CCOC(=O)[C@H]1O[C@@H]1C(=O)N[C@@H](CC(C)C)C(=O)NCCC(C)C [E64d, reference compound]
effect of pre-incubation on cathepsin labeling by probe ([1]; 25 μM, 2 hours prior to probe addition, MDA-MB-231 cells): blocked all cysteine cathepsin activity

Cy5-Ala-Arg-Leu-Arg-AOMK [MP-pc1, Cy5-labeled broad spectrum (pan-specific) cathepsin probe]
kobs/I Cath-L [2]: 47,500 M^-1s^-1 | kobs/I Cath-V [3]: 53,200 M^-1s^-1 | kobs/I Cath-B [4]: 265,000 M^-1s^-1 | kobs/I Cath-S [5]: 202,500 M^-1s^-1 | kobs/I Cath-K [6]: 30,150 M^-1s^-1 | cathepsins labeled in MDA-MB-231 cells ([1]; 1 μM probe, 0–18 hours, antibody overlay): bound mostly to cathepsin B | cathepsins labeled in HEK293T cells [7]: labeled both cathepsins L (25 kDa and 30 kDa) and B (30 kDa) | labeling of recombinant cathepsins L, V, B, S and K [8]: can label cathepsins L, V, B and S (10 nM) even at a 1 : 1 ratio

biotin-6-ahx-His-DThr-Phe(F5)-Arg-AOMK [MP-cL1]
lowest probe concentration giving a signal in the cathepsin MW range [9]: 100 nM | cross-reactivity with cathepsin B in pulldown eluting fractions [10]: only minor cross-reactivity

biotin-6-ahx-His-DThr-Phe(F5)-Lys-AOMK [MP-cL2]
lowest probe concentration giving a signal in the cathepsin MW range [9]: 100 nM | cross-reactivity with cathepsin B in pulldown eluting fractions [10]: only minor cross-reactivity
